These results are taken from ChEMBL document CHEMBL1141830, “Stereoselective total synthesis of (3R,8S)-falcarindiol, a common polyacetylenic compound from umbellifers” (J Nat Prod, 1999).

Molecules are shown by their SMILES. Converted amounts (≈) assume the structure as drawn.

One data set concerns Bacillus subtilis. Description: Antimicrobial activity against Bacillus subtilis Vernon. Type of data set: functional.
The test system of a further data set is Escherichia coli. In words: Antimicrobial activity against Escherichia coli DC2. Type of data set: functional.
The test system of data set [1] is Staphylococcus aureus. In words: Antimicrobial activity against methicillin-resistant Staphylococcus aureus SAP0017. Type of data set: functional.
Data set [2] concerns Staphylococcus aureus. Description: Antimicrobial activity against methicillin-sensitive Staphylococcus aureus K147. Type of data set: functional.
Data set [3] is described as follows: Antiproliferative activity against human MK1 cells by MTT assay. Type of data set: cell-based. The note with it: read-out: ED50 (the source's name). A general note: Tetrazolium dyes change colour on reduction, which living cells bring about.

As to `C=C[C@@H](O)C#CC#C[C@@H](O)/C=C\CCCCCCC` [FALCARINDIOL], the MIC – broadly, the lowest concentration found to suppress growth – in the data set on Bacillus subtilis amounted to 12.5 µg/mL (≈ 48 µM); in the data set on Escherichia coli, 2.5 µg/mL (≈ 9.6 µM); against Staphylococcus aureus [1], 25 µg/mL (≈ 96 µM); in the data set on Staphylococcus aureus [2], 12.5 µg/mL (≈ 48 µM). Moreover, in data set [3], the GI50 is 3.2 µg/mL (≈ 12.3 µM).
